From article PMC8486167, “Orally Active Peptide Vector Allows Using Cannabis to Fight Pain While Avoiding Side Effects” (Journal of Medicinal Chemistry, 2021)
Square brackets hold non-standard residues; d marks the D form. Ends that are not written are not given here. Peptide text beside a SMILES is read from it.

Legend:
CB1R–5HT2AR heteromer [1] = biological target: T1, CB1R–5HT2AR heteromer (Homo sapiens, UniProt P28223); assay: cAMP production (HTRF), decrease in FK-induced cAMP; assay type: cell-based; details: for FK-induced cAMP production after agonist: agonist 100 nM, all groups
T1 construct: expressed in transfected cells; host or cells: HEK-293T / HEK-293
T1 sequence (P28223 whole entry, one chain of several): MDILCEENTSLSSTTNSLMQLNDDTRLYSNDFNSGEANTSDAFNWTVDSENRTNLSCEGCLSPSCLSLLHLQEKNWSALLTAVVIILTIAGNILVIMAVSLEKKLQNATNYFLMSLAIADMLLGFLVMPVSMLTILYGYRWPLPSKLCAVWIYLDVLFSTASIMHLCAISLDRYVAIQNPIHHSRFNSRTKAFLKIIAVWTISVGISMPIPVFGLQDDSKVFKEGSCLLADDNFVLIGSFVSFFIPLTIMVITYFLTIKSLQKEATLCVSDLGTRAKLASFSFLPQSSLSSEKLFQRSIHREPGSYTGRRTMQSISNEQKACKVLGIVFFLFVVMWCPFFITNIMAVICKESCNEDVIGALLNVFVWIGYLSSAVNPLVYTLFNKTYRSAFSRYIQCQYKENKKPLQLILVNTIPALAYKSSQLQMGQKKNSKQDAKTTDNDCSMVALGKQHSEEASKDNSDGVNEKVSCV
Experimental: Sequences encoding YFP Venus protein amino acid residues 1–155 and 156–238 were subcloned in the pcDNA3.1 vector to obtain the YFP Venus hemitruncated proteins. The human cDNAs for 5HT2AR and CB1R, cloned into the pcDNA3.1, were amplified and subcloned as described[18] to give 5HT2AR-cYFP and CB1R-nYFP. Human embryonic kidney (HEK-293T) cells obtained from ATCC were grown in Dulbecco’s modified Eagle’s medium (DMEM) (Gibco) supplemented with 2 mM L-glutamine, 100 μg/mL sodium pyruvate, 100 U/mL penicillin/streptomycin, MEM nonessential amino acid solution (1/100), and 5% (v/v) heat-inactivated fetal bovine serum (FBS) (all supplements from Invitrogen, Paisley, Scotland, UK). Cells were maintained at 37 °C in an atmosphere of 5% CO2. HEK-293T cells were transfected with the corresponding fusion protein cDNA by the polyethylenimine (Sigma) method, as described before.[18]
For cAMP production, homogeneous time-resolved fluorescence energy transfer (HTRF) assays were performed as previously described.[18] […] Fluorescence at 665 nm was analyzed on a PHERAstar Flagship microplate reader equipped with an HTRF optical module (BMG Lab technologies, Offenburg, Germany).

CB1R–5HT2AR heteromer [2] = biological target: T1, CB1R–5HT2AR heteromer; assay: ERK-1/2 phosphorylation assay (α-screen); assay type: cell-based
Experimental: Phosphorylation was determined in white ProxiPlate 384-well microplates (PerkinElmer Life Sciences) by the α-screen bead-based technology using the amplified luminescent proximity homogeneous assay kit (PerkinElmer Life Sciences) and using the Enspire multimode plate reader (PerkinElmer Life Sciences). Phosphorylation is expressed in arbitrary units, ALPHAcounts, as measured by light emission at 520–620 nm of the acceptor beads.

mice [3] = assay: Hot-plate test (THC-induced analgesia); details: mouse; THC 10 mg/kg IP
mice [4] = assay: Novel object recognition test (THC memory impairment); assay type: in vivo; details: mouse; THC 3 mg/kg IP
Experimental: On day 1 (Habituation), mice were habituated for 9 min to the V-maze in which the task was performed. The following day (Training), mice were placed in the V-maze for 9 min, two identical objects were presented and the time that the mice spent exploring each object was recorded. Mice were again placed in the maze 24 h later for 9 min (Test), one of the familiar objects was replaced with a novel object and the total time spent exploring each of the two objects (novel and familiar) was recorded. Object exploration was defined as the orientation of the nose to the object at less than 2 cm. A discrimination index was calculated as the difference between the time spent exploring the novel or familiar object divided by the total time exploring the two objects. A higher discrimination index is considered to reflect greater memory retention for the familiar object.
Thirty min after peptide administration, mice received an IP injection of vehicle (5% v/v of ethanol, 5% v/v of Cremophor-EL, and 90% v/v saline) or 3 mg/kg of THC dissolved in vehicle.

[5] = system: bEnd.3 brain endothelial cells; details: 5(6)-carboxyfluorescein-labeled peptides; bEnd.3 cells; fluorescence in basolateral chamber after 24 h; n = 3–6
Experimental: bEnd.3 brain endothelial cells (ATCC CRL-2299TM) were grown as a monolayer in DMEM supplemented with 10% FBS and 1% penicillin/streptomycin solution (Gibco, USA). Cells were cultured in a humidified atmosphere of 95% air and 5% CO2 at 37 °C (MCO-18AIC (UV), Sanyo, Japan), with daily medium replacement.
The translocation capabilities of 5(6)-carboxyfluorescein-labeled peptides were determined using a protocol previously described.[30],[31] After the experiment, the integrity of the endothelial barrier was checked by measuring the permeability of a 4 kDa fluorescently labeled dextran (FD4) as previously described.[25] Experiments were carried out on different days using independently grown cell cultures.

mice [6] = assay: Immunogenicity: mice immunization and serum ELISA; assay type: in vivo, mouse; details: CD-1 mice, IV, 5 consecutive days and boost at day 15; 17 at 100 μg/dose, 17-KLH at 30 μg; sera days 0, 9, 19; plates coated with 17-BSA
Experimental: Experiments were performed at the ICTS “NANBIOSIS” Custom Antibody Service (CAbS, CIBER-BBN, IQAC-CSIC). The immune response to 17 was assessed in outbred Swiss ICR (CD-1) mice strain Hsd:ICR (CD-1) (Envigo RMS, The Netherlands), following the immunization schedule in Figure 7. Animals were housed under standard conditions in the CID-CSIC animal facility. Animal experimental procedures were conducted in accordance with protocols approved by CSIC Committee on Ethics of Animal Experiments and Biosafety, as well as the Spanish National Committee on Ethics and Animal Welfare. Briefly, a first group of 10 female mice received IV doses of 17 (200 μL, 20 mg/kg, PBS + 2% DMSO), a second group of 5 mice received IV doses of 17-KLH conjugate (200 μL, 30 μg) and a third group of 5 mice received IVdoses of PBS (200 μL, negative control). The 17-KLH conjugate, administered with Freund’s adjuvant, was also used to generate polyclonal antibody (positive control) (data not shown). Serum samples were collected by tail vein bleeds on days 0, 9, and 19. […] The peptide-specific humoral response was determined by indirect ELISA. […] Color development was stopped with 4 N H2SO4 (50 μL/well) after 30 min at r.t., and absorbance read at 450 nm. Titers in a log10 scale were expressed as the reciprocal of the last dilution giving the absorbance recorded in the control wells (serum at day 0) plus 2 SD.

trypsin = details: 24 h vs 0 h, HPLC main peak area, mean ± SEM, n = 2
Experimental: Peptide samples, incubated with trypsin, were collected and analyzed as before.[60] For human serum digestion, peptide [1000 μM, 2% dimethyl sulfoxide (DMSO) in filtered H2O] was added to human serum (Sigma, St Louis, Missouri) in a 1:1 ratio and incubated at 37 °C with gentle shaking. At 0 min and 24 h, aliquots were taken and proteolysis was stopped with CH3CN (80% in filtered H2O), chilled at 0 °C for 15 min to precipitate serum proteins, and centrifuged at 13,000 rpm at 4 °C for 10 min. The supernatant was collected and analyzed by analytical RP-HPLC and LC–MS as described before,[60] with a 0–95% linear gradient of CH3CN over 15 min. All experiments are performed in duplicate and data were fitted with GraphPad Prism.

[7] = RIM 1 μM vs DOI 100 nM, MDL 300 nM vs WIN 100 nM, no peptide

Compound: COc1cc(CC(C)N)c(OC)cc1I (stereo not shown) [DOI, 2,5-dimethoxy-4-iodoamphetamine]
- FK-induced cAMP production after agonist (CB1R–5HT2AR heteromer [1]; 0.5 μM FK): reduced cAMP production

Compound: Cc1c(C(=O)NN2CCCCC2)nn(-c2ccc(Cl)cc2Cl)c1-c1ccc(Cl)cc1 [RIM, rimonabant]
- antagonist block of the partner receptor's agonist signal (cross-antagonism, cAMP) (CB1R–5HT2AR heteromer [1]; [7]): blocked the decrease in FK-induced cAMP or the increase in pERK triggered by the 5HT2AR agonist DOI
- antagonist block of the partner receptor's agonist signal (cross-antagonism, pERK) (CB1R–5HT2AR heteromer [2]; [7]): blocked the decrease in FK-induced cAMP or the increase in pERK triggered by the 5HT2AR agonist DOI

Compound: CCCCCc1cc(O)c2c(c1)OC(C)(C)[C@@H]1CCC(C)=C[C@@H]21 [THC, Δ^9-tetrahydrocannabinol]
- THC effect in hot-plate test (mice [3]): analgesic effects
- THC effect in novel object recognition test (mice [4]): memory impairment

Compound: Cc1c(C(=O)c2cccc3ccccc23)c2cccc3c2n1[C@H](CN1CCOCC1)CO3 [WIN, WIN 55,212-2]
- FK-induced cAMP production after agonist (CB1R–5HT2AR heteromer [1]; 0.5 μM FK): reduced cAMP production

Compound: CC[C@@H](C)[C@@H](NC(=O)CNC(=O)[C@@H](C)NC(=O)[C@H](Cc1c[nH]c2ccccc12)NC(=O)[C@H](CC(C)C)NC(=O)[C@@H](NC(=O)[C@H](Cc1ccc(O)cc1)NC(=O)[C@H](CCSC)NC(=O)[C@H](Cc1ccc(O)cc1)NC(=O)[C@H](C)NC(=O)[C@H](Cc1ccc(O)cc1)NC(=O)[C@@H](N)C(C)C)[C@@H](C)CC)C(=O)N[C@H](CC(C)C)C(=O)N[C@H](CCCCN)C(=O)N[C@H](CCCNC(=N)N)C(=O)N[C@H](Cc1c[nH]c2ccccc12)C(N)=O [compound 13] (H-VYAYMYILW[dA]G[dI][dL][dK][dR][dW]-NH2)
- translocation across the transwell BBB model [5]: translocated more efficiently than 14 and 16

Compound: CC[C@@H](C)[C@@H](NC(=O)CNC(=O)[C@@H](C)N)C(=O)N[C@H](CC(C)C)C(=O)N[C@H](CCCCN)C(=O)N[C@H](CCCNC(=N)N)C(=O)N[C@H](Cc1c[nH]c2ccccc12)C(=O)N[C@@H](CCCCN)C(=O)N[C@H](C(=O)N[C@@H](CC(C)C)C(=O)N[C@H](C(=O)N[C@@H](CC(C)C)C(=O)N[C@H](C(=O)N[C@@H](CC(C)C)C(=O)N[C@H](C(=O)N[C@H](C(N)=O)C(C)C)C(C)C)[C@@H](C)CC)C(C)C)[C@@H](C)O [compound 15] (H-[dA]G[dI][dL][dK][dR][dW]KTLVLILVV-NH2)
- translocation across the transwell BBB model [5]: translocated more efficiently than 14 and 16

Compound: CC[C@@H](C)[C@@H](NC(=O)CNC(=O)[C@@H](C)NC(=O)[C@H](NC(=O)[C@@H](Cc1ccc(O)cc1)NC(=O)[C@@H](C)NC(=O)[C@@H](Cc1ccc(O)cc1)NC(=O)[C@@H](CCSC)NC(=O)[C@@H](Cc1ccc(O)cc1)NC(=O)[C@H](NC(=O)[C@@H](CC(C)C)NC(=O)[C@H](N)Cc1c[nH]c2ccccc12)[C@H](C)CC)C(C)C)C(=O)N[C@H](CC(C)C)C(=O)N[C@H](CCCCN)C(=O)N[C@H](CCCNC(=N)N)C(=O)N[C@H](Cc1c[nH]c2ccccc12)C(N)=O [compound 17] (H-[dW][dL][dI][dY][dM][dY][dA][dY][dV][dA]G[dI][dL][dK][dR][dW]-NH2)
- immunogenicity: peptide-specific antibody response (ELISA titers) (mice [6]): did not evoke any detectable immune response

Compound: AGILKRWKTLVLILVV-NH2 [compound 9]
- proteolytic stability: unaltered peptide remaining after trypsin incubation (trypsin): poor survival

Compound: LIKTVFAFCSMLCLLNSTVNPIIYALRGRKKRRQRRR [TM7-Tat, peptide TM7-Tat, used as a negative control]
- elimination of bidirectional cross-antagonism (FK-induced cAMP) (CB1R–5HT2AR heteromer [1]; DOI 100 nM, WIN 100 nM, MDL 300 nM, RIM 1 μM, 0.5 μM FK, n = 3–6): not observed with TM7-Tat
- influence on G protein coupling preference of 5HT2AR (CB1R–5HT2AR heteromer [1]; FK-induced cAMP, 0.5 μM FK, WIN 100 nM or DOI 100 nM, transfected HEK-293T cells, n = 3–6): 5HT2AR remains Gi-coupled in the presence of interfering peptides
- elimination of bidirectional cross-antagonism (pERK) (CB1R–5HT2AR heteromer [2]; DOI 100 nM, WIN 100 nM, MDL 300 nM, RIM 1 μM, % of basal, n = 4–9): not observed with TM7-Tat

Compound: SKSKSKKTLVLILVV-NH2 [compound 10]
- proteolytic stability: unaltered peptide remaining after trypsin incubation (trypsin): poor survival

Compound: VYAYMYILWAGILKRW-NH2 [compound 5]
- proteolytic stability: unaltered peptide remaining after trypsin incubation (trypsin): poor survival

Compound: VYAYMYILWSKSKSK-NH2 [compound 6]
- proteolytic stability: unaltered peptide remaining after trypsin incubation (trypsin): poor survival
